Measurements reported in PMC9655717, “New Molecules of Diterpene Origin with Inhibitory Properties toward α-Glucosidase” (International Journal of Molecular Sciences, 2022).

Molecular target: T1, yeast α-GLy (α-glucosidase, Sigma G0660) (Saccharomyces cerevisiae, UniProt P53341)
T1 construct: purchased Sigma G0660
Assay: biochemical
Assay type: biochemical
Conditions: IC50 ± SE, α-glucosidase inhibition, yeast α-glucosidase, 37°C, pH 6.8
Experimental: S1. Materials and Methods […]
glucosidase inhibition assay. α-Glucosidase enzyme inhibition assay was carried out in a 96-well microplate. The method’s principle based on the hydrolyzed reaction of 4-nitrophenyl-α-D-glucopiranoside with α-glucosidase enzyme into yellow 4- […]
p-Nitrophenyl α-D-Glucoside a- Gl ucosidas e α-D-Glucose + p- Nitrophenol α-Glucosidase inhibitory activity assay was performed following the modified method of Pistia Brueggeman and Hollingsworth with slight modification. Quinopimaric […]
concentrations of 256, 64, 16, 4 and 1 µg/mL. In a 96-well plate, a reaction mixture containing 20 μL of phosphate buffer (100 mM; pH 6.8), 20 μL of α-glucosidase (0.3 U/mL, Sigma G0660) (this concentration was determined by a series of α-glucosidase […]
linearity between the enzyme concentration and the absorbance of yellow color mixture after reaction which was approximately 5-fold higher than the back ground and at least […]
concentrations was pre-incubated for 10 min at 37°C. Then 20 μL of […] p-nitrophenyl α-D-glucopyranoside (Sigma N1377) was added to the mixture as a substrate. After further incubation at 37°C for 30 min, the reaction was stopped by adding 80 μL of 0.1 […]
solution were prepared using the phosphate buffer […]; pH 6.8. […]
as a positive control and water as negative control. The yellow color produced was quantitated by colorimetric analysis and reading the absorbance at 410 nm. Each experiment was performed in triplicates, along with appropriate blanks. The solvent DMSO was use as negative control to evaluate its effect on α-glucosidase activity. […]
or substrate in negative control. Back ground was determined by volume of buffer as […]
The % inhibition has been obtained using the formula:
% inhibition = {Absorbance (control) –Absorbance (sample)}/Absorbance (control) IC50 value is defined as the concentration of samples inhibiting 50% of α-glucosidase activity under the stated assay conditions. […]

T1 sequence (P53341 whole entry): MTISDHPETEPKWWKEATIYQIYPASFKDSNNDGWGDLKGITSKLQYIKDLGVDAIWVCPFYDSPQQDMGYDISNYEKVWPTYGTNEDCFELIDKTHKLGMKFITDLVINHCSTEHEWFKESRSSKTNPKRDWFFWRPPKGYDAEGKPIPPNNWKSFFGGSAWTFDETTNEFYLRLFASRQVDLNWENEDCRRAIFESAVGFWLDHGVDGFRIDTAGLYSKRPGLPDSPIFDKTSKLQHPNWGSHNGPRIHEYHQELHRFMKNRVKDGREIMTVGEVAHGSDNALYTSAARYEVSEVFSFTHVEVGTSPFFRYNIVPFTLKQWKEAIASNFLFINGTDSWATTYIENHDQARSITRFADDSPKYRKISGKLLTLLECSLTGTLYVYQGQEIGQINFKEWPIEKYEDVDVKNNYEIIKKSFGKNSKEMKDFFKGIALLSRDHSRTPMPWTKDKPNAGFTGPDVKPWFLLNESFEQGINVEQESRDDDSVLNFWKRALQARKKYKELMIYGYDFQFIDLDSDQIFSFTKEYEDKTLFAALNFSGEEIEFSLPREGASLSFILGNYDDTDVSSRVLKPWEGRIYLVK

| Compound | IC50 [µM] |
| --- | --- |
| COC(=O)[C@]1(C)CCC[C@]2(C)[C@H]3C[C@@H]4[C@H]5[C@@H]6CC(Br)C(=O)[C@H]5[C@@]3(CC[C@H]21)C[C@@]4(C(C)C)O6 (stereo partly drawn) [Compound 25] | > 255 |
| COC(=O)[C@]1(C)CCC[C@]2(C)[C@H]3C[C@@H]4[C@H]5[C@@H]6CCC(=O)N[C@H]5[C@@]3(CC[C@H]21)C[C@@]4(C(C)C)O6 [Compound 39] | 44.8 ± 0.96 |
| COC(=O)[C@]1(C)CCC[C@]2(C)[C@H]3C[C@@H]4[C@H]5[C@@H]6CC7NC(=S)NC7[C@H]5[C@@]3(CC[C@H]21)C[C@@]4(C(C)C)O6 (stereo partly drawn) [Compound 32] | 9.66 ± 0.77 |
| COC(=O)[C@]1(C)CCC[C@]2(C)[C@H]3C[C@H]4C(C(C)C)=C[C@]3(CC[C@H]21)[C@@H]1C(=O)CC[C@H](OC(=O)c2ccccc2C(=O)O)[C@@H]14 [Compound 20] | > 255 |
| COC(=O)[C@]1(C)CCC[C@]2(C)[C@H]3C[C@H]4C(C(C)C)=C[C@]3(CC[C@H]21)[C@@H]1C(=O)CC[C@H](OC(=O)CCC(=O)O)[C@@H]14 [Compound 17] | > 255 |
| COC(=O)[C@]1(C)CCC[C@]2(C)[C@H]3C[C@H]4C(C(C)C)=C[C@]3(CC[C@H]21)[C@@H]1C(=O)CC[C@H](OC(=O)CCCC(=O)O)[C@@H]14 [Compound 18] | > 255 |
| COC(=O)[C@]1(C)CCC[C@]2(C)[C@H]3C[C@@H]4[C@H]5[C@@H]6Cc7c([nH]c8ccccc78)[C@H]5[C@@]3(CC[C@H]21)C[C@@]4(C(C)C)O6 [Compound 33] | 65.98 ± 0.03 |
| CCOC(=O)c1c(C)[nH]c2c3c(c(O)cc12)[C@H]1C[C@@H]2[C@@]4(C)CCC[C@@](C)(C(=O)OC)[C@@H]4CC[C@@]32C=C1C(C)C [Compound 43, Methyl 1-Hydroxy-13-Isopropyl-1′-(Ethoxycarbonyl)-7,10a,2′-Trimethyl-5,6,6b,7,8,9,10,10a,10b,11,12,13-Dodecahydro-12,4b-Ethenophenanthro-[2,1-g]indole-7-Carboxylate] | > 255 |
| CC(C)C1=CC23CCC4C(C)(C(=O)O)CCCC4(C)C2CC1c1c(O)ccc(O)c13 (stereo not drawn) [Compound 49] | > 255 |
| COC(=O)[C@]1(C)CCC[C@]2(C)[C@H]3C[C@H]4C(C(C)C)=C[C@]3(CC[C@H]21)[C@@H]1c2[nH]c3ccccc3c2-c2c([nH]c3ccccc23)[C@@H]14 [Compound 34] | > 255 |
| C#CCNC(=O)[C@]1(C)CCC[C@]2(C)[C@H]3C[C@H]4C(C(C)C)=C[C@]3(CC[C@H]21)[C@@H]1C(=O)CCC(=O)[C@@H]14 [Compound 10] | > 255 |
| COC(=O)[C@]1(C)CCC[C@@]2(C)[C@H]1CC[C@]13C=C(C(C)C)[C@H](C[C@H]21)C1=C3C(=O)C=CC1=O [Compound 41, 1a,4a-dehydroquinopimaric acid methyl ester] | > 255 |
| COC(=O)[C@]1(C)CCC[C@]2(C)[C@H]3C[C@@H]4[C@H]5[C@@H]6CCC(=NOCCC#N)[C@H]5[C@@]3(CC[C@H]21)C[C@@]4(C(C)C)O6 [Compound 5] | > 255 |

Same assay, conditions: yeast α-glucosidase, 37°C, pH 6.8; read-out: IC50 ± SE, α-glucosidase inhibition

| Compound | IC50 [µM] |
| --- | --- |
| COC(=O)[C@]1(C)CCC[C@]2(C)[C@H]3C[C@H]4C(C(C)C)=C[C@]3(CC[C@H]21)[C@@H]1C(=O)C(=Cc2ccc(OC)cc2)C[C@H](O)[C@@H]14 [Compound 6] | 1.63 ± 0.006 |
| COC(=O)[C@]1(C)CCC[C@]2(C)[C@H]3C[C@@H]4[C@H]5[C@@H]6CC(=Cc7ccc(OC)cc7)C(=O)[C@H]5[C@@]3(CC[C@H]21)C[C@@]4(C(C)C)O6 [Compound 27] | > 255 |
| COC(=O)c1c(C)[nH]c2c3c(c(O)cc12)[C@H]1C[C@@H]2[C@@]4(C)CCC[C@@](C)(C(=O)OC)[C@@H]4CC[C@@]32C=C1C(C)C [Compound 36] | 8.94 ± 0.96 |
| COC(=O)c1c(C)[nH]c2c3c(c(O)cc12)[C@H]1C[C@@H]2[C@@]4(C)CCC[C@@](C)(C(=O)O)[C@@H]4CC[C@@]32C=C1C(C)C [Compound 35] | 7.95 ± 0.2 |
| COC(=O)[C@]1(C)CCC[C@]2(C)[C@H]3C[C@@H]4[C@H]5[C@@H]6CC(=Cc7ccco7)C(=O)[C@H]5[C@@]3(CC[C@H]21)C[C@@]4(C(C)C)O6 [Compound 29] | 1.63 ± 0.041 |
